The nature of this data set: Characteristic feature of the main excipients. Conditions: effect of excipient in donepezil film. From the text:
The characteristic feature of the main excipients of the present invention—In order to achieve the object of the above formulation research, it can be seen that the main excipients of the below Table 3 are essential elements.

These results are taken from patent US20160184439A1, “ORALLY DISINTEGRATING FILM PREPARATION CONTAINING DONEPEZIL OR PHARMACEUTICALLY ACCEPTABLE SALT THEREOF, AND PREPARATION METHOD THEREFOR” (SEOUL PHARMA. CO., LTD., priority 2013, published 2016).

Molecules are shown by their SMILES.

For `CC(O)COC[C@H]1O[C@@H]2O[C@H]3[C@H](O)[C@@H](O)[C@@H](O[C@H]4[C@H](O)[C@@H](O)[C@@H](O[C@H]5[C@H](O)[C@@H](O)[C@@H](O[C@H]6[C@H](O)[C@@H](O)[C@@H](O[C@H]7[C@H](O)[C@@H](O)[C@@H](O[C@H]8[C@H](O)[C@@H](O)[C@@H](O[C@H]1[C@H](O)[C@H]2O)O[C@@H]8COCC(C)O)O[C@@H]7COCC(C)O)O[C@@H]6COCC(C)O)O[C@@H]5COCC(C)O)O[C@@H]4COCC(C)O)O[C@@H]3COCC(C)O` (some centres unmarked) [Hydroxypropylbetadex], the “Occurrence of the impurity” value is “Inhibition”. Next, `Cc1cc(C(C)(C)C)c(O)c(C(C)(C)C)c1` [Dibuthylhydroxytoluene]: “Inhibition”.
